In brackets after ≈: the same amount, converted by molar mass.
Key:
[1] = test system: L1210; experiment: The compound was tested in vivo for the potent antitumor activity toward L1210 leukemia in mice at the dose of 1.6 (mg/kg); assay type: functional, Mus musculus
[2] = test system: KB; experiment: The compound was tested for the inhibitory activity against the proliferation of KB cells; assay type: functional, cell-based; settings: Homo sapiens

Compound | T/C [1] | IC50 [2]
C[C@@H]1C[C@H]1[C@H](C)C[C@@H](O)[C@@]1([C@H]2CC[C@H]3[C@@H]4CC[C@H]5CC(=O)CC[C@]5(C)[C@H]4C[C@@H](O)[C@]23C)CO1 [ARAGUSTEROL A] | 220% | 0.042 µg/mL (≈ 0.0916 µM)
C[C@@H]1C[C@H]1[C@H](C)C[C@@H](O)[C@@]1([C@H]2CC[C@H]3[C@@H]4CC[C@@H]5CC(=O)CC[C@]5(C)[C@H]4C[C@@H](O)[C@]23C)CO1 [5-EPIARAGUSTEROL A] |  | 0.041 µg/mL (≈ 0.0894 µM)
